Values quoted from earlier work, collected in patent US20210251906A1, “[…]-RELEASE FORMULATIONS” (Mylan Inc., priority 2018, published 2021).

Tests used:
[1] = in vivo
[2] = in water and in basic and acidic aqueous solutions

Q: Which results are given for `CC(C)C[C@H](CN)CC(=O)O` [Pregabalin, (S)-3-(aminomethyl)-5-methylhexanoic acid]?
A: Elimination half-life [1]: about 6.3 hours; Solubility [2]: freely soluble
